Strand notation (5' to 3'): a small letter for the sugar, then the base; units joined by * are phosphorothioate-linked, units joined directly phosphodiester-linked; [ ] holds rarer units or linkages, { } end groups; capitals alone tell only the bases. e = 2'-O-(2-methoxyethyl) (MOE); [5mC] = 5-methylcytosine; d = 2'-deoxy (DNA)
Tests used:
human PKK mRNA [1] = test: Antisense inhibition of human PKK mRNA in HepaRG cells, 5,000 nM (Example 2); assay type: cell-based
Summary of the method: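 HepaRG cells (20,000/well) electroporated with 5,000 nM MOE gapmer (phosphorothioate backbone, 5-methylcytosines) and harvested after ~24 h. PKK mRNA measured by qRT-PCR with primer probe set RTS3454, normalized to RIBOGREEN total RNA; percent inhibition versus untreated cells.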

human PKK mRNA [2] = test: Dose-dependent antisense inhibition of human PKK in HepaRG cells, 0.19-5.00 uM (Example 5); assay type: cell-based; details: HepaRG cells; for percent inhibition of PKK at 0.19 μM / percent inhibition of PKK at 0.56 μM / percent inhibition of PKK at 1.67 μM / percent inhibition of PKK at 5.00 μM: electroporation, approximately 16 hours; for percent inhibition of PKK mRNA, 0.19 μM: 0.19 μM antisense oligonucleotide; for percent inhibition of PKK mRNA, 0.56 μM: 0.56 μM antisense oligonucleotide; for percent inhibition of PKK mRNA, 1.67 μM: 1.67 μM antisense oligonucleotide; for percent inhibition of PKK mRNA, 5.00 μM: 5.00 μM antisense oligonucleotide
Summary of the method: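 HepaRG cells (20,000/well) were electroporated with antisense oligonucleotide at 0.19, 0.56, 1.67 and 5.00 μM and treated for about 16 hours. PKK mRNA was quantified by qRT-PCR with primer probe set RTS3454, normalised to RIBOGREEN total RNA, and IC50 was derived per oligonucleotide.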

[3] = 4 point dose response, Table 39
[4] = human PKK mRNA in HepaRG cells, 5-10-5 gapmers, Table 14
[5] = 4 point dose response, Table 35
[6] = 4 point dose response, Table 36
[7] = 4 point dose response, Table 37
[8] = human PKK mRNA, HepaRG cells, 5-10-5 motif oligonucleotides targeting SEQ ID NO: 1 and 10

| Substance | percent inhibition of PKK at 0.19 μM (human PKK mRNA [2]; Table 39) [%] | percent inhibition of PKK at 0.56 μM (human PKK mRNA [2]; Table 39) [%] | percent inhibition of PKK at 1.67 μM (human PKK mRNA [2]; Table 39) [%] | IC50 (human PKK mRNA [2]; [3]) [nM] | % inhibition (human PKK mRNA [1]; [4]) [%] | percent inhibition of PKK mRNA, 0.19 μM (human PKK mRNA [2]) [%] | percent inhibition of PKK mRNA, 0.56 μM (human PKK mRNA [2]) [%] | percent inhibition of PKK mRNA, 1.67 μM (human PKK mRNA [2]) [%] | percent inhibition of PKK mRNA, 5.00 μM (human PKK mRNA [2]) [%] | IC50 (human PKK mRNA [2]; 0.19-5.00 μM) [nM] | % inhibition (human PKK mRNA [1]; [8]) [%] | also measured |
| --- | --- | --- | --- | --- | --- | --- | --- | --- | --- | --- | --- | --- |
| 546848 (eT*e[5mC]*eA*e[5mC]*eT*dG*dT*d[5mC]*d[5mC]*dT*dA*dT*dA*dT*d[5mC]*eA*e[5mC]*eT*eG*eT; antisense) [compound 546848] | 0 | 18 | 91 | 1000 | – | – | – | – | – | – | – | % inhibition (human PKK mRNA [1]; Table 13, human PKK mRNA in HepaRG cells, 5-10-5 gapmers): 86%; percent inhibition of PKK at 5.00 μM (human PKK mRNA [2]; Table 39): 97% |
| 546849 (eA*eT*e[5mC]*eA*e[5mC]*dT*dG*dT*d[5mC]*d[5mC]*dT*dA*dT*dA*dT*e[5mC]*eA*e[5mC]*eT*eG; antisense) [compound 546849] | – | – | – | – | 93 | 13 | 45 | 84 | 98 | 700 | – | percent inhibition of PKK at 0.19 μM (human PKK mRNA [2]; Table 35): 23%; percent inhibition of PKK at 0.56 μM (human PKK mRNA [2]; Table 35): 35%; percent inhibition of PKK at 1.67 μM (human PKK mRNA [2]; Table 35): 83%; percent inhibition of PKK at 5.00 μM (human PKK mRNA [2]; Table 35): 91%; IC50 (human PKK mRNA [2]; [5]): 700 nM |
| 546852 (e[5mC]*eA*eG*eT*eA*dT*d[5mC]*dA*d[5mC]*dT*dG*dT*d[5mC]*d[5mC]*dT*eA*eT*eA*eT*e[5mC]; antisense) [compound 546852] | – | – | – | – | 94 | – | – | – | – | – | – | percent inhibition of PKK at 0.19 μM (human PKK mRNA [2]; Table 35): 19%; percent inhibition of PKK at 0.56 μM (human PKK mRNA [2]; Table 35): 40%; percent inhibition of PKK at 1.67 μM (human PKK mRNA [2]; Table 35): 78%; percent inhibition of PKK at 5.00 μM (human PKK mRNA [2]; Table 35): 85%; IC50 (human PKK mRNA [2]; [5]): 800 nM |
| 546853 (eA*e[5mC]*eA*eG*eT*dA*dT*d[5mC]*dA*d[5mC]*dT*dG*dT*d[5mC]*d[5mC]*eT*eA*eT*eA*eT; antisense) [compound 546853] | 47 | 64 | 84 | 200 | 86 | 4 | 49 | 74 | 92 | 800 | – | – |
| 546854 (eT*eA*eA*e[5mC]*eA*dG*dT*dA*dT*d[5mC]*dA*d[5mC]*dT*dG*dT*e[5mC]*e[5mC]*eT*eA*eT; antisense) [compound 546854] | – | – | – | – | 90 | – | – | – | – | – | – | percent inhibition of PKK at 0.19 μM (human PKK mRNA [2]; Table 36): 23%; percent inhibition of PKK at 0.56 μM (human PKK mRNA [2]; Table 36): 39%; percent inhibition of PKK at 1.67 μM (human PKK mRNA [2]; Table 36): 83%; percent inhibition of PKK at 5.00 μM (human PKK mRNA [2]; Table 36): 94%; IC50 (human PKK mRNA [2]; [6]): 600 nM |
| 546855 (eA*eT*eA*eA*e[5mC]*dA*dG*dT*dA*dT*d[5mC]*dA*d[5mC]*dT*dG*eT*e[5mC]*e[5mC]*eT*eA; antisense) [compound 546855] | – | – | – | – | 87 | – | – | – | – | – | – | percent inhibition of PKK at 0.19 μM (human PKK mRNA [2]; Table 37): 18%; percent inhibition of PKK at 0.56 μM (human PKK mRNA [2]; Table 37): 7%; percent inhibition of PKK at 1.67 μM (human PKK mRNA [2]; Table 37): 30%; percent inhibition of PKK at 5.00 μM (human PKK mRNA [2]; Table 37): 82%; IC50 (human PKK mRNA [2]; [7]): 2200 nM |
| 546870 (e[5mC]*eT*eG*eT*eA*d[5mC]*d[5mC]*dT*dA*dT*dA*dA*d[5mC]*dT*d[5mC]*eT*eA*eA*e[5mC]*eA; antisense) [compound 546870] | 35 | 42 | 80 | 500 | 87 | 36 | 34 | 61 | 91 | 1000 | – | percent inhibition of PKK at 5.00 μM (human PKK mRNA [2]; Table 39): 95% |
| 546872 (e[5mC]*eA*e[5mC]*eT*eG*dT*dA*d[5mC]*d[5mC]*dT*dA*dT*dA*dA*d[5mC]*eT*e[5mC]*eT*eA*eA; antisense) [compound 546872] | 32 | 33 | 82 | 400 | 87 | 42 | 13 | 59 | 99 | 1400 | – | percent inhibition of PKK at 5.00 μM (human PKK mRNA [2]; Table 39): 94% |
| 546876 (eG*eT*e[5mC]*e[5mC]*eT*dA*dT*dA*dT*d[5mC]*dA*d[5mC]*dT*dG*dT*eA*e[5mC]*e[5mC]*eT*eG; antisense) [compound 546876] | 0 | 50 | 85 | 800 | 87 | – | – | – | – | – | – | percent inhibition of PKK at 5.00 μM (human PKK mRNA [2]; Table 39): 95% |
| 546877 (e[5mC]*eA*e[5mC]*eT*eG*dT*d[5mC]*d[5mC]*dT*dA*dT*dA*dT*d[5mC]*dA*e[5mC]*eT*eG*eT*eA; antisense) [compound 546877] | – | – | – | – | 88 | – | – | – | – | – | – | percent inhibition of PKK at 0.19 μM (human PKK mRNA [2]; Table 37): 0%; percent inhibition of PKK at 0.56 μM (human PKK mRNA [2]; Table 37): 19%; percent inhibition of PKK at 1.67 μM (human PKK mRNA [2]; Table 37): 75%; percent inhibition of PKK at 5.00 μM (human PKK mRNA [2]; Table 37): 80%; IC50 (human PKK mRNA [2]; [7]): 1300 nM |
| 546889 (eG*eT*e[5mC]*e[5mC]*eT*dA*dT*dG*dT*d[5mC]*dA*d[5mC]*dT*dG*dT*eA*e[5mC]*e[5mC]*eT*eA; antisense) [compound 546889] | – | – | – | – | – | 25 | 9 | 73 | 92 | 1400 | 93 | percent inhibition of PKK at 0.19 μM (human PKK mRNA [2]; Table 35): 23%; percent inhibition of PKK at 0.56 μM (human PKK mRNA [2]; Table 35): 54%; percent inhibition of PKK at 1.67 μM (human PKK mRNA [2]; Table 35): 78%; percent inhibition of PKK at 5.00 μM (human PKK mRNA [2]; Table 35): 91%; IC50 (human PKK mRNA [2]; [5]): 600 nM |
| 546894 (eT*e[5mC]*eA*e[5mC]*eT*dG*dT*d[5mC]*d[5mC]*dT*dA*dT*dG*dT*d[5mC]*eA*e[5mC]*eT*eG*eT; antisense) [compound 546894] | – | – | – | – | – | – | – | – | – | – | 91 | percent inhibition of PKK at 0.19 μM (human PKK mRNA [2]; Table 36): 15%; percent inhibition of PKK at 0.56 μM (human PKK mRNA [2]; Table 36): 47%; percent inhibition of PKK at 1.67 μM (human PKK mRNA [2]; Table 36): 50%; percent inhibition of PKK at 5.00 μM (human PKK mRNA [2]; Table 36): 93%; IC50 (human PKK mRNA [2]; [6]): 900 nM |
| 546896 (eG*eT*eA*eT*e[5mC]*dA*d[5mC]*dT*dG*dT*d[5mC]*d[5mC]*dT*dA*dT*eG*eT*e[5mC]*eA*e[5mC]; antisense) [compound 546896] | – | – | – | – | – | 35 | 60 | 83 | – | 400 | 75 | percent inhibition of PKK at 0.19 μM (human PKK mRNA [2]; Table 40): 0%; percent inhibition of PKK at 0.56 μM (human PKK mRNA [2]; Table 40): 45%; percent inhibition of PKK at 1.67 μM (human PKK mRNA [2]; Table 40): 82%; percent inhibition of PKK at 5.00 μM (human PKK mRNA [2]; Table 40): 97%; IC50 (human PKK mRNA [2]; 4 point dose response, Table 40): 800 nM |
| 546897 (eA*eG*eT*eA*eT*d[5mC]*dA*d[5mC]*dT*dG*dT*d[5mC]*d[5mC]*dT*dA*eT*eG*eT*e[5mC]*eA; antisense) [compound 546897] | – | – | – | – | – | 16 | 17 | 69 | 97 | 800 | 90 | percent inhibition of PKK at 0.19 μM (human PKK mRNA [2]; Table 36): 40%; percent inhibition of PKK at 0.56 μM (human PKK mRNA [2]; Table 36): 56%; percent inhibition of PKK at 1.67 μM (human PKK mRNA [2]; Table 36): 71%; percent inhibition of PKK at 5.00 μM (human PKK mRNA [2]; Table 36): 95%; IC50 (human PKK mRNA [2]; [6]): 400 nM |
| 546903 (e[5mC]*e[5mC]*eT*eA*eT*dA*dT*d[5mC]*dA*d[5mC]*dT*dG*dT*dA*d[5mC]*e[5mC]*eT*eA*eT*eA; antisense) [compound 546903] | – | – | – | – | – | – | – | – | – | – | 91 | percent inhibition of PKK at 0.19 μM (human PKK mRNA [2]; Table 36): 15%; percent inhibition of PKK at 0.56 μM (human PKK mRNA [2]; Table 36): 37%; percent inhibition of PKK at 1.67 μM (human PKK mRNA [2]; Table 36): 74%; percent inhibition of PKK at 5.00 μM (human PKK mRNA [2]; Table 36): 98%; IC50 (human PKK mRNA [2]; [6]): 800 nM |
| 546916 (e[5mC]*eG*eT*e[5mC]*eA*d[5mC]*dT*dG*dT*dA*d[5mC]*d[5mC]*dT*dA*dT*eA*eA*e[5mC]*eT*eG; antisense) [compound 546916] | – | – | – | – | – | 0 | 27 | 73 | 97 | 1000 | – | % inhibition (human PKK mRNA [1]; HepaRG cells, 5,000 nM antisense oligonucleotide, 5-10-5 gapmers, Table 16): 92%; percent inhibition of PKK at 0.19 μM (human PKK mRNA [2]; Table 35): 43%; percent inhibition of PKK at 0.56 μM (human PKK mRNA [2]; Table 35): 71%; percent inhibition of PKK at 1.67 μM (human PKK mRNA [2]; Table 35): 79%; percent inhibition of PKK at 5.00 μM (human PKK mRNA [2]; Table 35): 89%; IC50 (human PKK mRNA [2]; [5]): 200 nM |

From patent US11840686B2, “Modulation of prekallikrein (PKK) expression” (Ionis Pharmaceuticals, Inc., priority 2013, dated 2023)
